The text below walks through data of patent publication US20040229791A1, “Compositions and methods of modulating TGF-beta activity by fatty acids” (priority 2002, published 2004).

Molecules are shown by their SMILES.

The target of the experiment is T1, TGF-β1-α2M* complex (Homo sapiens, UniProt P01023).
T1 construct: was purified from pooled citrate-treate human plasma; from tissue; host or cells: pooled citrate-treated human plasma
T1 sequence (P01023 24-1474): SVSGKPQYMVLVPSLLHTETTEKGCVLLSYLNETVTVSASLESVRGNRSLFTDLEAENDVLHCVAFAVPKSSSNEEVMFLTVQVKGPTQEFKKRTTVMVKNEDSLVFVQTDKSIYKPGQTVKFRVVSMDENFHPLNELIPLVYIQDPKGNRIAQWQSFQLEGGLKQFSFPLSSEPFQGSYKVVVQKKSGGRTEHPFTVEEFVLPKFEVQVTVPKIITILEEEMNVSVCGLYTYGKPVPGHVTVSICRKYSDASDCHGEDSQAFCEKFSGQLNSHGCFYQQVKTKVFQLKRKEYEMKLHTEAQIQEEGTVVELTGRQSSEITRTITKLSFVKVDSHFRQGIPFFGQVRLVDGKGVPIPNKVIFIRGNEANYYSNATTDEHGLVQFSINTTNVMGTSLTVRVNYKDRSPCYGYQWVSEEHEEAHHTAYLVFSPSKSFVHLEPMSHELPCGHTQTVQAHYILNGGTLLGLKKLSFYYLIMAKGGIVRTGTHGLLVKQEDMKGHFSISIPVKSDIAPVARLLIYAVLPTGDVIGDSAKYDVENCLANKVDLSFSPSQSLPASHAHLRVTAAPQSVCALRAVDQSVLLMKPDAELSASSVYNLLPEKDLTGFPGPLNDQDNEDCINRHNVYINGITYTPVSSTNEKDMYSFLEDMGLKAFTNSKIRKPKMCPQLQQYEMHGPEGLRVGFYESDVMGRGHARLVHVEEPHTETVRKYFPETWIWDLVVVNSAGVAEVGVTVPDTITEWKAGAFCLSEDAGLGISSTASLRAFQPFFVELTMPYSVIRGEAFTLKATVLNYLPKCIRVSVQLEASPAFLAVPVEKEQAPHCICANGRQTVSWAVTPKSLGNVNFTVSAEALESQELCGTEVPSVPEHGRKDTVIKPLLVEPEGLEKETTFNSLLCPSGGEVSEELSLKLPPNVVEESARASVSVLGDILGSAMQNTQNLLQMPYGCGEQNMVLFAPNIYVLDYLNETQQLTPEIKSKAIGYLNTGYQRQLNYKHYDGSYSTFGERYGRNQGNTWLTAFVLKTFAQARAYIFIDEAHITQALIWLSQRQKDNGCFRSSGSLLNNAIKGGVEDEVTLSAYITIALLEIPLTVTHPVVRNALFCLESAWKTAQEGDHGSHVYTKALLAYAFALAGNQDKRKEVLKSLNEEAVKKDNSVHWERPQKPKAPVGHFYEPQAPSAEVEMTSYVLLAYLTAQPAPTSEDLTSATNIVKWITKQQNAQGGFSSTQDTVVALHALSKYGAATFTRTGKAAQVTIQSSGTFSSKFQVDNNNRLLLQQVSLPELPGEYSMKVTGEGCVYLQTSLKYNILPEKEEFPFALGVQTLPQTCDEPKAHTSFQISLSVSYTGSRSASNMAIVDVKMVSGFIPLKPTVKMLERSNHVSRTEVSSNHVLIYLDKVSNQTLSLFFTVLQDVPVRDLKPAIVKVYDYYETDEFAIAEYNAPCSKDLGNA
Nature of the experiment: Inhibition of 125I-TGF-β1 and α2M* complex formation (5% non-denaturing PAGE, autoradiography). The class given is binding. Conditions: for IC50: ~1 nM 125I-TGF-β1, 10 μg α2M* in 0.05 ml, 30 min room temperature, non-denaturing PAGE, read-out: IC50 for inhibiting complex formation between TGF-β1 and α2M*. Here is the method:
Saturated and unsaturated fatty acids are present in plasma and tissues (25,26). The effects of various concentrations of saturated fatty acids on the formation of complexes between ^125I-TGF ? β1 and ? 2M* were examined. ^125I-TGF- ? 1 (1 nM) was incubated μg/ml) in the presence of various concentrations of n-caprylic acid ([…]), lauric acid (12 carbon atoms), myristic acid (14 carbon atoms), palmitic acid (16 carbon atoms) and stearic acid (18 carbon atoms). After 30 min at room temperature, the reaction mixture was analyzed by 5% non-denaturing PAGE and autoradiography, a standard method form determining complex formation between TGF-β and α2M* (12). […] At 100 μM, it inhibited 20% of the complex formation between TGF ? β1 and α2M*. Esterification consistently abolished the inhibitory activities of the fatty acids.
Complex formation of ^125I-TGF-β and ? 2M*—The reaction mixture contained 10 μg of . α2M*, ˜1 nM of ^125I-TGF- ? 1, ^125I-TGF ? β2 or ^125I-TGF ? acids (dissolved in 100% ethanol) in 0.05 ml of 50 mM HEPES-NaOH buffer, pH 7.4. The final concentration of ethanol in the reaction mixture was 0.5%. These fatty acids and fatty acid derivatives were soluble under the experimental conditions. After 30 min at room temperature, the complex formation of ^125I-TGF- ? and. α2M* was determined by 5% non-denaturing polyacrylamide gel electrophoresis (PAGE) or by 7.5% SDS-PAGE following cross-linking by 0.6 mM DSS. After electrophoresis, the gel was stained with Coomassie blue and analyzed by autoradiography. The ^125I-TGF- ? - ? 2M* complex which co-migrated with free ? 2M* was quantified using a PhosphoImager (Fuji).

Take `CCCCCC=CCC=CCC=CCC#CCCCC(=O)O` [ETYA, 8, 11, 14 eicosatrien-5-ynoic acid]: the IC50 amounted to 30 µM.

For the compound `CCCCC/C=C\C/C=C\C/C=C\C/C=C\CCCC(=O)OC` [arachidonic acid methyl ester], the “inhibitory activity on complex formation of 125I-TGF-β1 and α2M*” value is “inactive”.

For `CCCCCCCCCCCC(=O)O` [lauric acid], the half-maximal inhibitory concentration (IC50) worked out at 68 µM.
